Several values for one entry are separate records, joined by “and”; a condition that tells them apart may be missing. Equal entries are not always repeated.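 Test compounds were applied to cells in 96-well plates for 48 hours at 5 doses. Abbreviation: GI50, concentration required for 50% inhibition of growth. TGI denotes the concentration required for complete inhibition of growth.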
What was measured:
Assay in all cases: NCI anticancer screen, dose series, 48 h
MDA-MB-231 breast = test system: MDA-MB-231 breast
KM12 colon = test system: KM12 colon
COLO 205 colon = test system: COLO 205 colon
SN12C renal = test system: SN12C renal
LOX IMVI melanoma = test system: LOX IMVI melanoma
HOP-62 NSCLC = test system: HOP-62 NSCLC
UACC-257 melanoma = test system: UACC-257 melanoma
SK-MEL-28 melanoma = test system: SK-MEL-28 melanoma
786-0 renal = test system: 786-0 renal
SW-620 colon = test system: SW-620 colon

Row | SMILES | TGI (MDA-MB-231 breast) [µM] | TGI (KM12 colon) [µM] | TGI (COLO 205 colon) | TGI (SN12C renal) [µM] | TGI (LOX IMVI melanoma) [µM] | TGI (HOP-62 NSCLC) [µM] | TGI (UACC-257 melanoma) | TGI (SK-MEL-28 melanoma) [µM] | TGI (786-0 renal) [µM] | TGI (SW-620 colon) [µM] | GI50 (MDA-MB-231 breast) [µM] | GI50 (KM12 colon) | GI50 (COLO 205 colon) | GI50 (SN12C renal) [µM] | GI50 (LOX IMVI melanoma) [µM] | GI50 (HOP-62 NSCLC) | GI50 (UACC-257 melanoma) | GI50 (SK-MEL-28 melanoma) | GI50 (SW-620 colon) [µM]
1 | CN(C)CC1CCC/C(=C\c2ccc(OC(=O)/C=C/c3ccc(Cl)c(Cl)c3)cc2)C1=O (centres undefined) | 11.9 | 3.61 | 3.93 µM | 5.64 | 4.01 | 14.8 | 40.4 µM | 28.1 | 4.19 | 7.86 |  |  |  |  |  |  |  |  | 
2 | CN(C)CCNC(=O)c1ccc(Cl)c2cc3ccccc3nc12 | 3 | 11.4 | 1.64 µM | 4.18 | 1.4 | 4.6 | 2.64 µM | 4.03 | 5.61 | 6.68 |  |  |  |  |  |  |  |  | 
3 | Cc1cc(N2CCCC2)c([N+](=O)[O-])cc1[N+](=O)[O-] | > 100 | > 100 | > 100 µM | > 100 | > 100 |  | > 100 µM | > 100 | > 100 | > 100 |  |  |  |  |  |  |  |  | 
4 | COCC12CCC(OC)C34C5CC6(O)C(OC)CC(OC(C)=O)(C5C6OC(=O)c5ccccc5)C(C(OC)C13)C4N(C)C2 (centres undefined) | > 100 | > 100 | > 100 µM | > 100 | > 100 | > 100 | > 100 µM | > 100 | > 100 | > 100 |  |  |  |  |  |  |  |  | 
5 | COc1cccc(-c2nccc3c(OCc4ccccc4)c(OC)c(OC)cc23)c1 |  | > 100 | > 100 µM | > 100 | > 100 | > 100 | > 100 µM |  |  | > 100 |  |  |  |  |  |  |  |  | 
6 | COc1ccc([C@]23CCN4COC[C@@H]([C@H]42)C2(CC3)OCC(C)(C)CO2)cc1OC | > 100 | > 100 | > 100 µM | > 100 | > 100 | > 100 | > 100 µM | > 100 | > 100 | > 100 |  |  |  |  |  |  |  |  | 
7 | COc1cc(CCN(C)C)cc(OC)c1OC | > 100 | > 100 | > 100 µM | > 100 | > 100 | > 100 | > 100 µM |  |  | > 100 |  |  |  |  |  |  |  |  | 
8 | O=C(c1ccc(O)c([N+](=O)[O-])c1)c1ccc(O)c([N+](=O)[O-])c1 | > 100 | > 100 | > 100 µM | > 100 | > 100 | > 100 | > 100 µM | > 100 | > 100 | > 100 |  |  |  |  |  |  |  |  | 
9 | CCOC(=O)C(C)(C)Oc1ccc2c(-c3ccc(Cl)cc3)c(-c3ccc(Cl)cc3)c(=O)oc2c1 |  |  | > 100 µM | > 100 | > 100 | > 100 | > 100 µM | > 100 | > 100 | > 100 |  |  |  |  |  |  |  |  | 
10 | O=C1/C(=C/c2ccccc2)NC(=S)N1CN1CCCCC1 | > 100 | > 100 | > 100 µM | > 100 | > 100 | > 100 | > 100 µM | > 100 | > 100 | > 100 |  |  |  |  |  |  |  |  | 
11 | Cc1c2ccccc2c(C)n2c1nc1ccccc12 |  | 23.3 |  | 30.9 |  | 36 | 76.4 µM | 22.5 | 25.9 | > 100 |  |  |  |  |  |  |  |  | 
12 | COc1cccc(C2SC(C)C(=O)N2CCc2cccs2)c1 (centres undefined) | 13.9 | 8.99 | 2.82 µM | 13.5 | 11.6 | 14.9 | 10.3 µM | 14 |  | 15.7 | 2.72 | 2.67 µM | 1.47 µM | 3.15 | 2.48 | 3.12 µM | 3.17 µM | 3.6 µM | 3.48
13 | COc1ccc2c(c1)c1nn(CCN3CCCCC3)c3ccc4c(=O)n(CCN(C)C)c(=O)n2c4c13 | 0.126 | 0.0801 |  | 0.0984 | 0.178 | 0.0384 | 0.885 µM | 0.596 | 0.059 | 0.0751 |  |  |  |  |  |  |  |  | 
14 | COC([C@@H](OC(=O)c1ccccc1)[C@H](OC(=O)c1ccccc1)C(O)COC(=O)c1ccccc1)n1cc(C)c(=O)[nH]c1=O (some centres undefined) | > 100 |  | 51.9 µM | > 100 | > 100 | > 100 | > 100 µM | > 100 | 77 | > 100 |  |  |  |  |  |  |  |  | 
15 | COc1ccc2[nH]c(C(=O)N3CC(CCl)c4c3cc(N)c3ccccc43)cc2c1 (centres undefined) |  | 0.263 | < 0.0167 µM | < 0.0183 | 0.0223 | 0.0358 |  |  |  | 0.132 |  |  |  |  |  |  |  |  | 
16 | CC(=O)OC(C)c1cc2c(s1)C(=O)c1c(C(C)OC(C)=O)csc1C2=O (centres undefined) | 3.6 | 3.41 | 3.5 µM | 2.04 |  | 2.5 | 1.89 µM | 3.27 | 4.93 | 2.37 |  |  |  |  |  |  | 0.631 µM | 1.65 µM | 
17 | COC12C=CC(C=C1C#N)CC2 (centres undefined) (tested in a mixture with another compound) | > 100 | > 100 | > 100 µM | > 100 |  | > 100 | > 100 µM | > 100 | > 100 | > 100 |  |  |  |  |  |  |  |  | 
18 | CCCCn1c2ccccc2c2ccc3c(c21)C(=O)C=CC3=O |  | > 100 | > 100 µM | > 100 | > 100 | > 100 | > 100 µM | > 100 | > 100 | > 100 |  |  |  |  |  |  |  |  | 
19 | O=C(CSc1nnc(-c2ccc(N=Cc3ccc(Cl)cc3)cc2)o1)Nc1ccc([N+](=O)[O-])cc1 |  |  | > 100 µM | 37.7 | 22.4 | > 100 | 44.3 µM | 33.7 | 36.1 | 36.3 |  |  |  |  |  |  |  |  | 
20 | COC12CCC(C(C(=O)c3ccccc3)=C1C(=O)c1ccccc1)C(O)C2 (centres undefined) |  | > 100 | > 100 µM | > 100 |  | > 100 | > 100 µM | > 100 | > 100 | > 100 |  |  |  |  |  |  |  |  | 
21 | CC(=O)NC1(C(=O)N[C@@H](Cc2ccccc2)C(=O)NC2CCCCC2)Cc2ccc3ccccc3c2-c2c(ccc3ccccc23)C1 |  | > 100 | 4.44 µM and 15.9 µM |  | > 100 | > 100 | 10.8 µM and 75.5 µM | > 100 | > 100 | > 100 |  | 2.89 µM and 6.88 µM | 2.2 µM and 5.01 µM |  |  | 12.2 µM and 57.3 µM | 2 µM and 5.32 µM | 9.72 µM and 23.1 µM | 

Reference: PubChem BioAssay (NCI)
